Among the data in ChEMBL document CHEMBL3763076, “Novel 2-phenyl-5-[(E)-2-(thiophen-2-yl)ethenyl]-1,3,4-oxadiazole and 3-phenyl-5-[(E)-2-(thiophen-2-yl)ethenyl]-1,2,4-oxadiazole derivatives as dengue virus inhibitors targeting NS5 polymerase” (Eur J Med Chem, 2016) are IC50, EC50 and CC50 values, retold here.

pEC50, pIC50: −log10 of the molar value.

Series [1] is described as follows: Inhibition of Dengue virus 2 RdRp using homopolymeric uridine RNA as template assessed as reduction in RNA synthesis incubated for 10 mins by picogreen fluorescent assay. Further details: species or system dengue virus type 2.
Series [2] deals with dengue virus type 1. In words: Antiviral activity against clinical isolates of Dengue virus 1. It is filed as functional, organism-based.
The test system of series [3] is dengue virus type 2. Description: Antiviral activity against clinical isolates of Dengue virus 2. It is filed as functional, organism-based.
In series [4] the test system is dengue virus type 3. Description: Antiviral activity against clinical isolates of Dengue virus 3. The series is classed as functional, organism-based.
For series [5], the system named is dengue virus type 4. Description: Antiviral activity against clinical isolates of Dengue virus 4. The series is classed as functional, organism-based.
A short description of series [6]: Cytotoxicity against African green monkey Vero E6 cells assessed as reduction in cell viability treated for 3 days measured on day 4 by cell titer-blue fluorescent assay. It is filed as cell-based. The following applies: chlorocebus sabaeus.
Series [7] relates to dengue virus type 1. Description: Antiviral activity against clinical isolates of Dengue virus 1 Indonesia JKT 1186 TVP 949 infected in African green monkey Vero E6 cells assessed as reduction in viral RNA after 4 days by qRT-PCR method. The series is classed as functional, organism-based. The following applies: Indonesia JKT 1186 TVP 949, Vero, 96 h.
Series [8] has as its system dengue virus type 2. In words: Antiviral activity against clinical isolates of Dengue virus 2 Martinique H/IMTSSA-MART/98-703 infected in African green monkey Vero E6 cells assessed as reduction in viral RNA after 4 days by qRT-PCR method. It is filed as functional, organism-based. The following applies: Martinique H/IMTSSA-MART/98-703, Vero, 96 h. (In qPCR the cycle at which signal appears reflects the starting amount.)

Series [9] deals with dengue virus type 3. In words: Antiviral activity against clinical isolates of Dengue virus 3 Bolivia 4025 infected in African green monkey Vero E6 cells assessed as reduction in viral RNA after 4 days by qRT-PCR method. It is filed as functional, organism-based. The following applies: Bolivia 4025, Vero, 96 h.
The test system of series [10] is dengue virus type 4. In words: Antiviral activity against clinical isolates of Dengue virus 4 Dakar HD34460 infected in African green monkey Vero E6 cells assessed as reduction in viral RNA after 4 days by qRT-PCR method. The series is classed as functional, organism-based. The following applies: 96 h.
Series [11] relates to dengue virus type 4. Description: Antiviral activity against clinical isolates of Dengue virus 4 Martinique 017 infected in African green monkey Vero E6 cells assessed as reduction in viral RNA after 4 days by qRT-PCR method. Conditions: Martinique 017, Vero, 96 h. The series is classed as functional, organism-based.

Turning to `Clc1ccc(-c2nnc(/C=C/c3ccc(-c4ccccc4)s3)o2)cc1Cl`, the pIC50 in [1] was 4.61.

Turning to `COc1ccc(-c2nnc(/C=C/c3ccc(-c4ccccc4)s3)o2)cc1`, the pIC50 in series [1] is 4.66.

As for `Brc1cccc(-c2nnc(/C=C/c3ccc(-c4ccccc4)s3)o2)c1`, the pIC50 in series [1] is 4.27.

Consider `Fc1cccc(-c2nnc(/C=C/c3ccc(Br)s3)o2)c1`, for which, in series [1], the negative-log IC50 (pIC50) is 4.79.

With `FC(F)(F)Oc1ccc(-c2noc(/C=C/c3ccc(Br)s3)n2)cc1`, the negative logarithm of the IC50 (pIC50) in series [1] was 4.49.

Regarding `O=C(/C=C/c1ccc(-c2ccccc2)s1)Nc1cccc(Cl)c1`, the pEC50 with dengue virus type 1 [2], in the series on dengue virus type 2 [3], in the series on dengue virus type 3 [4] and in the series on dengue virus type 4 [5] was 6.40 throughout.

Take `CN(C)c1ccc(-c2nnc(/C=C/c3ccc(Br)s3)o2)cc1`: the pIC50 in series [1] was 4.70.

With `CN(C)c1ccc(-c2nnc(/C=C/c3ccc(-c4ccccc4)s3)o2)cc1`, the pIC50 in [1] was 4.38.

As to `FC(F)(F)c1ccc(-c2noc(/C=C/c3ccc(Br)s3)n2)cc1`, the pIC50 in [1] was 4.68.

Consider `C#C[C@@]1(O)[C@H](O)[C@@H](CO)O[C@H]1n1ccc2c(N)ncnc21`, for which, in [6], the CC50 at 72 h is greater than 100 µM. Moreover, the pEC50 in the series with dengue virus type 1 [7] is 6.07; in the series on dengue virus type 2 [8] it was 6.09; in the series on dengue virus type 3 [9], 6.92; in the series with dengue virus type 4 [10] it was 7.10; with dengue virus type 4 [11] it was 7.52.

With `O=c1cc(-c2ccc(Oc3c(O)cc4oc(-c5ccc(O)cc5)cc(=O)c4c3O)cc2)oc2cc(O)cc(O)c12` [HINOKIFLAVONE], the pIC50 in series [1] is 6.35.

For the compound `O=C(/C=C/c1ccc([N+](=O)[O-])s1)Nc1ccc([N+](=O)[O-])cc1O`, the pIC50 in series [1] is 5.89.

As for `O=C(/C=C/c1ccc(Br)s1)Nc1ccc(Cl)c(Cl)c1`, the pEC50 in the series on dengue virus type 1 [2], in the series with dengue virus type 2 [3], with dengue virus type 3 [4] and in the series on dengue virus type 4 [5] was 7.40 in each case.

For the compound `Brc1ccc(/C=C/c2nnc(-c3ccccc3)o2)s1`, in series [1], the pIC50 is 4.79.

As to `C(=C\c1ccc(-c2ccccc2)s1)/c1nnc(-c2ccccc2)o1`, the negative logarithm of the IC50 (pIC50) in [1] is 4.73.

Turning to `Fc1ccc(-c2nnc(/C=C/c3ccc(-c4ccccc4)s3)o2)cc1`, the pIC50 in [1] is 4.76.

Take `Fc1ccc(-c2nnc(/C=C/c3ccc(Br)s3)o2)cc1`: the pIC50 in [1] is 4.79.

The pIC50 is the negative decadic logarithm of the IC50, by convention in mol/L. As a reminder, the pEC50 is the negative decadic logarithm of the EC50, by convention in mol/L. As usually defined, the CC50 is the concentration at which the toxic effect on the cells reaches its halfway point.
